Data on one sequence can be found in US20240309069A1, “COMPOSITIONS AND METHODS FOR TREATMENT OF DISEASES” (Byrock Technologies Limited, priority 2014, published 2024).

Ends that are not written are not given here.

For the data set, the system named is carbohydrate overload model of acute laminitis in horses. Description: Oligofructose (carbohydrate) overload model of acute laminitis, LTNF peptide study KLM-15-02. The format is in vivo. The following applies: all horses that received the intravenous peptide, 2 to 8 grams. The protocol:
This communication is a brief report on the results obtained from the recent clinical study to evaluate the potential prophylactic and/or therapeutic properties of KLM's proprietary application of a 15 amino acid sequence termed LTRF in saline when employed in a carbohydrate overload model of acute laminitis in horses.
In compliance with the methods outlined in protocol KLM-15-02, nine healthy, mature horses between 4 and 9 years of age were evaluated for enrollment in the clinical study. […] Preliminary examinations were deemed normal for all candidates. Eligible candidates underwent a formal acclimation period of 10 days, during which feed, water, housing and management were identical to conditions of the actual study. On Days −3, −2, and −1, oligofructose was added to the a.m. grain ration of each candidate at a dosage of 1 gram per kg body weight.
Prior to induction on Day 0, a baseline lameness exam was repeated and captured on video. […]
At regular, 6-hr intervals after induction, the general health of each horse was assessed, a lameness exam was repeated, and rectal temperature was monitored. Once diarrhea had begun, each horse's hydration status was monitored at 2- to 4-hr intervals by assessing its packed cell volume (PCV; hematocrit) and plasma total protein concentration. […]

As for “LKAMDPTPPLWIKTE [LTNF peptide, Leu-Lys-Ala-Met-Asp-Pro-Thr-Pro-Pro-Leu-Trp-Ile-Lys-Thr-Glu]”, the “signs of immune reaction or toxicity” value is listed as “no signs of immune reaction or toxicity”.
